The record followed here is ChEMBL document CHEMBL6087481, “Interleukin-1 Receptor-Associated Kinase 4 (IRAK4) Degraders for Treating Inflammatory Diseases: Advances and Prospects” (J Med Chem, 2025).

Experiment [1] deals with T1, Interleukin-1 receptor-associated kinase 4 (Homo sapiens, UniProt Q9NWZ3).
T1 sequence (Q9NWZ3 whole entry): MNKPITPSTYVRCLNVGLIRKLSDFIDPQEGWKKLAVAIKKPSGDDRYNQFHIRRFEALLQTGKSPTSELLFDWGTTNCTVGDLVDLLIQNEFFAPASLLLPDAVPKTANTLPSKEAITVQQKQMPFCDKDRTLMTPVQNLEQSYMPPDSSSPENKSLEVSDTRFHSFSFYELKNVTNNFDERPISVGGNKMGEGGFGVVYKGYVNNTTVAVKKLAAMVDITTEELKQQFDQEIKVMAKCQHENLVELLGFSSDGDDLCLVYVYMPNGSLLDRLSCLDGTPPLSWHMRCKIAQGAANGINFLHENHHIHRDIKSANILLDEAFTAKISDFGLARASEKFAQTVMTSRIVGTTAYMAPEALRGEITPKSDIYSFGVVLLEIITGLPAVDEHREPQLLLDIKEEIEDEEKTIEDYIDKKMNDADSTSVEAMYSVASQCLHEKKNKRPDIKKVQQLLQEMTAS
The experiment in a line: Inhibition of IRAK4 (unknown origin).

The target in experiment [2] is von Hippel-Lindau disease tumor suppressor/Interleukin-1 receptor-associated kinase 4 (Homo sapiens, UniProt Q9NWZ3+P40337). The experiment in a line: PROTAC activity at VHL/IRAK4 in human HEK293T cells assessed as IRAK4 degradation measured after 24 hrs by immunoblotting analysis. Format: cell-based. (A western blot detects proteins with antibodies after separation by electrophoresis.)
Sequence of von Hippel-Lindau disease tumor suppressor/Interleukin-1 receptor-associated kinase 4 (P40337 whole entry, one chain of several): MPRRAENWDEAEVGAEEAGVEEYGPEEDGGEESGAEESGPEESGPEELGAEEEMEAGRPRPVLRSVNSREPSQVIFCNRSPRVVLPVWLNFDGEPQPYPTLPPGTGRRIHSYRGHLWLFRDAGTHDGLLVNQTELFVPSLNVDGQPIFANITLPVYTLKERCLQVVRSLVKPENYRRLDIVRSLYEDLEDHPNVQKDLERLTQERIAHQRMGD

Experiment [3] has as its target T2, Protein cereblon/Interleukin-1 receptor-associated kinase 4 (Mus musculus, UniProt Q8C7D2+Q8R4K2).
T2 sequence (Q8C7D2 whole entry): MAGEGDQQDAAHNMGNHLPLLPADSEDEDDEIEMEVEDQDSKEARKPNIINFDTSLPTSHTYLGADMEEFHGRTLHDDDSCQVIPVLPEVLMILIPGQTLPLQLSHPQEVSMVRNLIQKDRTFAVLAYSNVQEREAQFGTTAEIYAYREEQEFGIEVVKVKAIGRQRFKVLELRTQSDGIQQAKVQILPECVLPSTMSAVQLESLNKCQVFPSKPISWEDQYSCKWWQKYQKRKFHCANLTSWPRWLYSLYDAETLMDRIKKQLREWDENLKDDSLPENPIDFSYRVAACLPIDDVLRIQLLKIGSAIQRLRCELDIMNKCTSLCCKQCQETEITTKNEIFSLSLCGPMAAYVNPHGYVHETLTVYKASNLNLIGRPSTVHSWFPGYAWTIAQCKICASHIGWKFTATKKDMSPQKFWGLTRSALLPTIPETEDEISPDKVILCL
T2 sequence (Q8R4K2 whole entry): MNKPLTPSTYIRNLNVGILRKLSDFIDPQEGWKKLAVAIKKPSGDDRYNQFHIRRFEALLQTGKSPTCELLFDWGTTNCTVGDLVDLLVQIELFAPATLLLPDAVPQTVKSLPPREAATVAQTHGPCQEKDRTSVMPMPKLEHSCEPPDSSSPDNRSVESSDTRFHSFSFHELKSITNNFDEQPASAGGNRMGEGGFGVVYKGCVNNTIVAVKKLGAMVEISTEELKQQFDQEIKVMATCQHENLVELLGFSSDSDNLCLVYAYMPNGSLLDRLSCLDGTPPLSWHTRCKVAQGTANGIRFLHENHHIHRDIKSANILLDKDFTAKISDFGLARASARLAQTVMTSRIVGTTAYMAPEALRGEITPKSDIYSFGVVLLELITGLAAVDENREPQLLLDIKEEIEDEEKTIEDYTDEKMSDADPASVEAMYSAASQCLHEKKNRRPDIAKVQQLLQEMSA
The experiment in a line: PROTAC activity at IRAK4/CRBN in mouse RAW264.7 cells assessed as reduction in IRAK4 level incubated for 12 hrs by Western blot analysis. The experiment is classed as cell-based.

Take `CC(C)Nc1cc(-n2ccc3cc(C#N)cnc32)ncc1C(=O)N[C@H]1CC[C@H](C(=O)NC2CC2)CC1`: the half-maximal inhibitory concentration (IC50) in experiment [1] was determined as 3 nM.

Turning to `CC(C)Nc1cc(-n2ccc3cc(C#N)cnc32)ncc1C(=O)N[C@H]1CC[C@H](C(=O)NCCOCCNC(=O)Oc2cccc3c2C(=O)N(C2CCC(=O)NC2=O)C3=O)CC1` (stereo partly drawn), in experiment [2], the DC50 was 405 nM.

Regarding `COc1cc(N2CCN(C(=O)CCOCC#Cc3ccc4c(c3)C(=O)N(C3CCC(=O)NC3=O)C4=O)CC2)ccc1NC(=O)c1cccc(-c2ccn[nH]2)n1` (stereo not drawn), in experiment [3], the DC50 is 47.3 nM.

As a reminder, the IC50 is the midpoint of a concentration-inhibition curve. A higher IC50 goes with weaker potency.
